Data published in patent publication US12139488B2, “Pyrido[3,2-d]pyrimidine compounds uses thereof for treating a proliferative disease” (Universite de Montreal, priority 2021, dated 2024).

Test system: pERK in HCT-116 cells (KRAS G13D)
Assay: Phospho-ERK inhibition (AlphaLISA SureFire Ultra p-ERK 1/2), HCT116
Format: cell-based, human
Description: All cancer cell lines (A375, A101D, A2058, RKO, HT29 SK-MEL 30, IPC298, HepG2, HCT-116, Lovo, SWV620, SW480, NCI-H358, NCI-H2122, Calu-6, NCIH2087, NCIH1755, NCIH1666 and Mewo) were obtained from ATCC and cultured in RPMI-1640 medium (Gibco) supplemented with 5% heat inactivated fetal bovine serum (FBS, Wisent) at 37° C. under 5% CO2. Cells were maintained in T175 flasks (Greiner). They were passaged by removing the culture medium, washing once in 10 mL of room temperature Phosphate Buffered Saline (PBS; Wisent) and incubating at 37° C. with 2 mL of 0.05% Trypsin (Thermo-Fisher). Trypsin was then inactivated by adding complete growth medium and the cells were then replated in a T175 culture dish at the appropriate dilution. All cell lines were routinely tested for mycoplasma contamination. Tissue type and mutational status of each cell line can be found in Table B.
AlphaLISA® SureFire® Ultra™ p-ERK 1/2 (Thr202/Tyr204) analysis was conducted on cells plated in 100 μL of complete RPMI-1640 growth medium in 96-well flat-bottomed transparent dishes (Costar) at a density indicated in Table C. Cells were maintained overnight at 37° C. under 5% CO2 before treatment with compounds' dilution series for one hour. The cell density in cells/cm^2 corresponds to cell number divided by the area of one well of a 96-well plate ([…]).
In a dilution series 100 μL/well of test substance dilution prepared in complete RPMI-1640 growth media was added to the cells. The dilution series is selected so that ten concentrations cover a range from 10 μM to 0.33 nM. If necessary the initial concentration of 10 μM is increased to 100 μM or lowered to 1 μM (as in the case of A375 and H1666 cells, which are generally more sensitive to the compounds) and further dilution is carried out accordingly. The final concentration of DMSO in the assay is set at 0.5%.
After treatment, media was removed and cells were lysed in 50 μL of 1× AlphaScreen Ultra Lysis Buffer (Perkin Elmer). The AlphaLISA® SureFire® Ultra™ p-ERK 1/2 (Thr202/Tyr2O4) (PerkinElmer) reactions were performed with 5 μL of cell lysate according to the manufacturer's specifications in 384-well proxyplates (Perkin Elmer) followed by overnight incubation of the reactions at room temperature in a humidified chamber. After completion of the reactions, the signals were recorded on an EnVision plate reader (Perkin Elmer) using built in AlphaLISA® settings.
The effect of each compound dilution on the pERK signal was expressed in % inhibition and calculated as follows. An internal 100% inhibition control ([…] trametinib, cat #HY-10999; MedChem Express; CAS #871700-17-3) was included in each plate and used as a measure of pERK background. First, the value obtained for trametinib was subtracted from each data point. The average of DMSO (vehicle) controls (set as 0% inhibition) was established and used to calculate % inhibition: % inhibition=100*(1-((pERK signalcompound)/(pERK signalDMSO)))
The ability of each compound to inhibit pERK signal was expressed as an IC50 value obtained by plotting the inhibition values for each data point of a dilution series and fitting the obtained curves using a log(agonist) versus response-variable slope (four parameters) function using GraphPadPrism (V7.0) or Dotmatics Screening Ultra platform.
When present, paradoxical pERK induction is inferred from the negative % inhibition values observed in the pERK IC50 curves of a compound.

[1] = HCT116 cells, class symbol before the bracket

Compound	IC50 (HCT116 cells, class symbol)	also measured
O=S(=O)(Nc1ccc(F)c(Nc2ncnc3ccc(-n4cc(S(=O)(=O)C5CCNCC5)c5ccccc54)nc23)c1F)c1cccc(Cl)c1Cl [Example 465]	500 to 1000 nM	
O=S(=O)(Nc1ccc(F)c(Nc2ncnc3ccc(-n4cnc5c(Cl)cccc54)nc23)c1F)c1cccc(Cl)c1Cl [Ex 462]	< 500 nM	
CC(C)(C#N)c1cccc2c1ncn2-c1ccc2ncnc(Nc3c(F)ccc(NS(=O)(=O)c4cccc(Cl)c4Cl)c3F)c2n1 [Example 520]	< 500 nM	
N#CC1(c2cccc3c2ncn3-c2ccc3ncnc(Nc4c(F)ccc(NS(=O)(=O)c5cccc(Cl)c5Cl)c4F)c3n2)CC1 [Example 552]	< 500 nM	
CCCNc1cccc2c1ncn2-c1ccc2ncnc(Nc3c(F)ccc(NS(=O)(=O)c4cccc(Cl)c4Cl)c3F)c2n1 [Example 242]		HCT116 pERK Ymin % (HCT116 cells, Ymin in brackets): −7.4%; IC50 [1]: 1000 to 10000 nM
Cc1c(F)cccc1S(=O)(=O)Nc1ccc(F)c(Nc2ncnc3ccc(-n4ncc5c4CN(CCN)CC5)nc23)c1F [Example 415]	500 to 1000 nM	
CN1CCCN(S(=O)(=O)c2cn(-c3ccc4ncnc(Nc5c(F)ccc(NS(=O)(=O)c6cccc(Cl)c6Cl)c5F)c4n3)c3ccccc23)CC1 [Ex 436]	< 500 nM	
Nc1nccc2c1ncn2-c1ccc2ncnc(Nc3c(F)ccc(NS(=O)(=O)c4cccc(Cl)c4Cl)c3F)c2n1 [Example 348]	< 500 nM	
O=S(=O)(Nc1ccc(F)c(Nc2ncnc3ccc(-n4cc(S(=O)(=O)N5CCN(CCO)CC5)c5ccccc54)nc23)c1F)c1cccc(Cl)c1Cl [Ex 389]	< 500 nM	
O=C1CCCN1c1cn(-c2ccc3ncnc(Nc4c(F)ccc(NS(=O)(=O)c5cccc(Cl)c5Cl)c4F)c3n2)c2ccccc12 [Example 511]	< 500 nM	
Cc1c(F)cccc1S(=O)(=O)Nc1ccc(F)c(Nc2ncnc3ccc(-n4cnc5c(C#N)cccc54)nc23)c1F [Example 329]	1000 to 10000 nM	
CCC(=O)c1cn(-c2ccc3ncnc(Nc4c(F)ccc(NS(=O)(=O)c5cccc(Cl)c5Cl)c4F)c3n2)c2ccccc12 [Ex 471]	1000 to 10000 nM	
CC1(O)CCN(S(=O)(=O)c2cn(-c3ccc4ncnc(Nc5c(F)ccc(NS(=O)(=O)c6cccc(Cl)c6Cl)c5F)c4n3)c3ccccc23)CC1 [Ex 458]	< 500 nM	
O=S(=O)(Nc1ccc(F)c(Nc2ncnc3ccc(-n4cc(S(=O)(=O)C5CCN(C6CCC6)CC5)c5ccccc54)nc23)c1F)c1cccc(Cl)c1Cl [Example 470]	< 500 nM	
CC(C)(O)CCNS(=O)(=O)c1cn(-c2ccc3ncnc(Nc4c(F)ccc(NS(=O)(=O)c5cccc(Cl)c5Cl)c4F)c3n2)c2ccccc12 [Ex 453]	< 500 nM	
Cc1cc(N)ccc1S(=O)(=O)Nc1ccc(F)c(Nc2ncnc3ccc(-n4cnc5c(N)cccc54)nc23)c1F [Example 369]	500 to 1000 nM	
Cc1c(F)cccc1S(=O)(=O)Nc1ccc(F)c(Nc2ncnc3ccc(-n4cnc(CCC#N)c4)nc23)c1F [Example 347]	< 500 nM	
Cc1c(F)cccc1S(=O)(=O)Nc1ccc(F)c(Nc2ncnc3ccc(-n4cc(S(=O)(=O)N5CCN(CCO)CC5)c5ccccc54)nc23)c1F [Ex 397]	< 500 nM	
CP(C)(=O)c1cn(-c2ccc3ncnc(Nc4c(F)ccc(NS(=O)(=O)c5cccc(Cl)c5Cl)c4F)c3n2)c2ccccc12 [Example 472]	1000 to 10000 nM	
CCN(C)Cc1cccc2c1ncn2-c1ccc2ncnc(Nc3c(F)ccc(NS(=O)(=O)c4ccccc4Cl)c3F)c2n1 [Ex 221]		HCT116 pERK Ymin % (HCT116 cells, Ymin in brackets): −5%; IC50 [1]: 500 to 1000 nM
O=S(=O)(CC1CCOCC1)c1cn(-c2ccc3ncnc(Nc4c(F)ccc(NS(=O)(=O)c5cccc(Cl)c5Cl)c4F)c3n2)c2ccccc12 [Ex 442]	< 500 nM	
CCOc1cccc2c1ncn2-c1ccc2ncnc(Nc3c(F)ccc(NS(=O)(=O)c4cccc(Cl)c4Cl)c3F)c2n1 [Example 525]	500 to 1000 nM	
Cc1c(F)cccc1S(=O)(=O)Nc1ccc(F)c(Nc2ncnc3ccc(-n4cc(S(=O)(=O)N5CCC(N(C)C)CC5)c5ccccc54)nc23)c1F [Ex 395]	< 500 nM	

Compound	IC50 (HCT116 cells, class symbol)	also measured
COCCN(CCOC)c1cccc2c1ncn2-c1ccc2ncnc(Nc3c(F)ccc(NS(=O)(=O)c4cccc(F)c4C)c3F)c2n1 [Example 376]	500 to 1000 nM	
Cc1c(F)cccc1S(=O)(=O)Nc1ccc(F)c(Nc2ncnc3ccc(-n4cnc5c(CC#N)cccc54)nc23)c1F [Example 361]	< 500 nM	
COc1cccc2c1ncn2-c1ccc2ncnc(Nc3c(F)ccc(NS(=O)(=O)c4cccc(Cl)c4Cl)c3F)c2n1 [Ex 449]	< 500 nM	
CC(=O)c1cn(-c2ccc3ncnc(Nc4c(F)ccc(NS(=O)(=O)c5cccc(Cl)c5Cl)c4F)c3n2)c2ccccc12 [Ex 464]	1000 to 10000 nM	
O=S(=O)(Nc1ccc(F)c(Nc2ncnc3ccc(-n4cnc5c(CCO)cccc54)nc23)c1F)c1cccc(Cl)c1Cl [Example 556]	< 500 nM	
O=S(=O)(Nc1ccc(F)c(Nc2ncnc3ccc(-n4cnc5c(CN6CC(F)C6)cccc54)nc23)c1F)c1ccccc1Cl [Example 227]		HCT116 pERK Ymin % (HCT116 cells, Ymin in brackets): −1.9%; IC50 [1]: 500 to 1000 nM
Cc1c(F)cccc1S(=O)(=O)Nc1ccc(F)c(Nc2ncnc3ccc(-n4ccc(C(=O)N(C)Cc5ccncc5)n4)nc23)c1F [Example 334]	< 500 nM	
Cc1c(F)cccc1S(=O)(=O)Nc1ccc(F)c(Nc2ncnc3ccc(-n4cc5c(n4)CCCN5CCCO)nc23)c1F [Example 391]	1000 to 10000 nM	
Cc1c(F)cccc1S(=O)(=O)Nc1ccc(F)c(Nc2ncnc3ccc(-n4ncc5c4CN(CC(N)=O)CC5)nc23)c1F [Example 531]	1000 to 10000 nM	
Cc1c(F)cccc1S(=O)(=O)Nc1ccc(F)c(Nc2ncnc3ccc(-n4cnc5c(-c6cccnc6N)cccc54)nc23)c1F [Example 424]	< 500 nM	
CS(=O)(=O)c1cn(-c2ccc3ncnc(Nc4c(F)ccc(NS(=O)(=O)c5cccc(Cl)c5Cl)c4F)c3n2)c2ccccc12 [Ex 381]	< 500 nM	
O=S(=O)(Nc1ccc(F)c(Nc2ncnc3ccc(-n4cc(S(=O)(=O)N5CCN(C6CCCCC6)CC5)c5ccccc54)nc23)c1F)c1cccc(Cl)c1Cl [Ex 380]	1000 to 10000 nM	
O=S(=O)(Nc1ccc(F)c(Nc2ncnc3ccc(-n4cc(S(=O)(=O)N5CCN(c6ccccn6)CC5)c5ccccc54)nc23)c1F)c1cccc(Cl)c1Cl [Ex 377]	500 to 1000 nM	
Cc1c(Cl)cccc1S(=O)(=O)Nc1cccc(Nc2ncnc3ccc(-n4nc(C(=O)N5CCOCC5)c5ccccc54)nc23)c1F [Example 241]		IC50 (HCT116 cells, Table 5): 1000 to 10000 nM; HCT116 pERK Ymin % (lowest value of the curve, HCT116, Table 5): −0.9%
O=S(=O)(Nc1ccc(F)c(Nc2ncnc3ccc(-n4cnc5c(CN6CCNCC6)cccc54)nc23)c1F)c1ccccc1Cl [Ex 230]		HCT116 pERK Ymin % (HCT116 cells, Ymin in brackets): −3%; IC50 [1]: 1000 to 10000 nM
O=S(=O)(Nc1ccc(F)c(Nc2ncnc3ccc(-n4cc(-c5ccccc5)nn4)nc23)c1F)c1cccc(Cl)c1Cl [Example 534]	< 500 nM	
Cc1c(F)cccc1S(=O)(=O)Nc1ccc(F)c(Nc2ncnc3ccc(-n4ncc5c4CN(CCO)CC5)nc23)c1F [Example 339]	< 500 nM	
CN(C)CCNS(=O)(=O)c1cn(-c2ccc3ncnc(Nc4c(F)ccc(NS(=O)(=O)c5cccc(Cl)c5Cl)c4F)c3n2)c2ccc(F)cc12 [Example 443]	< 500 nM	
CN(C)CCN(C)S(=O)(=O)c1cn(-c2ccc3ncnc(Nc4c(F)ccc(NS(=O)(=O)c5cccc(Cl)c5Cl)c4F)c3n2)c2ccc(F)cc12 [Example 444]	< 500 nM	
CN1CCC(S(=O)(=O)c2cn(-c3ccc4ncnc(Nc5c(F)ccc(NS(=O)(=O)c6cccc(Cl)c6Cl)c5F)c4n3)c3ccccc23)CC1 [Example 467]	< 500 nM	
CC(c1cccc2c1ncn2-c1ccc2ncnc(Nc3c(F)ccc(NS(=O)(=O)c4ccccc4Cl)c3F)c2n1)N1CCOCC1 (stereo not drawn) [Example 237]		HCT116 pERK Ymin % (HCT116 cells, Ymin in brackets): 2.8%; IC50 [1]: 500 to 1000 nM
O=S(=O)(Nc1ccc(F)c(Nc2ncnc3ccc(-n4cc(N5CCCCS5(=O)=O)c5ccccc54)nc23)c1F)c1cccc(Cl)c1Cl [Example 514]	< 500 nM	
